pIC50: −log10 of the molar value.
What was measured:
[1] = tested on: mouse dermal fibroblasts (mDFs); assay: Cell viability assay of NS and SEN mouse dermal fibroblasts treated with CRYAB and HMOX1 inhibitors; format: cell-based; settings: 250 nM Doxo-induced senescence; after 72 h of treatment; 25HC at five or 10 μM
Description: The average value of DMSO was set at 1. (B and D) Effects of CRYAB and HMOX1 inhibitors on DMSO-treated NS or Doxo-treated SEN cells; (B) mDFs, (D) IMR-90s. Cells were treated with the inhibitors at the indicated concentrations. Cell viability was measured after 72 h. (C) IMR-90 qRT-PCR. For qPCR: mean +/- SE, n =4, ∗p< 0.05, ∗∗p< 0.01, ∗∗∗p<0.001, ∗∗∗∗p<0.0001 by Dunnett’s multiple comparisons test vs DMSO. For cell viability assays: mean +/- SE, n =3, ∗∗p< 0.01, ∗∗∗p<0.001, ∗∗∗∗p<0.0001 vs 0 mM by student’s t test.
For skin sample collection, mice were euthanized, hair removed from dorsal skin and the area cleaned with alcohol. A small 1 cm x 1 cm region of skin was removed, and subcutaneous fat removed by scalpel. Skin was digested in 2–3 ml of 0.25% trypsin at 37 °C for 1 h. Hair and epidermis were further removed, and the dermis was minced into 2–3 mm pieces. Digestion of the sample in 5 ml of 1 mg/ml collagenase (Sigma, Cat#C5138) in HBSS (with Ca^++ and Mg^++) (Gibco, cat#24020117) was carried out at 37 °C on a shaker for 1 h. Collagenase digestion was stopped by addition of 10 ml 10% FBS DMEM. Filtration of the homogenate through a 70-micron mesh was performed to remove undigested tissue. Differential centrifugation and washing were performed at 1200 rpm for 5 min, and the pellet was resuspended in 10% FBS DMEM then seeded in a six-well plate. Media were changed at 5 days after seeding and then every 3 days.
(§1) All experiments were performed in incubators at 37 °C, 3% O2 and 5% CO2. Senescence was induced by treatment with either Doxo (250 nM for 24 h) ([Demaria et al., 2017]) or X-irradiation (10 Gy) ([Limbad et al., 2020]). For cell culture studies using 25HC, it was used at the indicated concentrations in the media.
(§2) Cell viability was assessed using a cell counting kit-8 from Dojindo Molecular Technologies, Inc (Cat CK04-20). Cells were incubated with culture media + 10% kit cell viability reagent, 150 μL/well in 96-well plates for 2 h. The supernatant was transferred to a new 96-well plate and absorbance read at 450 nm as recommended in the product datasheet.

SCs [2] = assay: Cell viability assay (cell counting kit-8) of senescent and non-senescent SCs treated with inhibitors; format: cell-based, mouse; settings: for viability of senescent versus non-senescent SCs: Doxo-induced senescence, viability on day 5
Description: (§3) Figure 3 25HC is a senolytic in multiple muscle cell types (A) Targets, compounds, and mechanisms. (B) Timeline of cell viability assay with inhibitors. Cells were pre-cultured for 24 h, treated with Doxo for 24 h, and then treated with inhibitors. Cell viability was analyzed from day 0–7. (C–E) Effects of inhibitors on viability of FAPs, SCs, and HSMMs. Cells were treated with inhibitors at the indicated concentrations. Cell viability was analyzed on day 3 (HSMMs) or 5 (FAPs and SCs). Blue and red dots indicate non-senescent (NS) and senescent (SEN), respectively. The average value at 0 μM for each group was set at 100% cell viability. p values versus NS were obtained using unpaired two-tailed Student’s t test. ∗p < 0.05, ∗∗p < 0.01, and ∗∗∗p < 0.001.
(§4) Figure 4 EC50 fitted curves (triplicates) of inhibitor effects at 3 and 7 days in FAPS and SCs EC50 was defined as the concentration of inhibitors that provokes a response halfway between baseline and maximum senolytic activity. EC50 values were determined by four- parameter logistic modeling using GraphPad Prism 8.0.
(§5) Hind limb muscles were digested in DMEM containing 0.5% (w/v) collagenase type II (Worthington) for 90 min at 37 °C with trituration and passed through a 40-μm nylon mesh. Erythrocytes were eliminated by treating with BD Pharm Lyse (BD Biosciences). Cells were resuspended in a washing buffer of PBS with 2% FBS and stained with antibodies for 30 min at 4 °C as described ([Kamizaki et al., 2017]). FAPs and SCs were isolated from the suspension by FACS (Aria II, BD Biosciences) using anti-CD31, CD45, Sca-1, PDGFR and VCAM1 antibodies. FAPs were identified as Sca1/PDGFR-positive and CD31-, CD45- and VCAM1-negative cells ([Uezumi et al., 2010]). SCs were identified as VCAM1-positive and CD31-, CD45-, Sca-1 and PDGFR-negative cells ([Liu et al., 2015]).
as §1
(§6) FAPs and SCs were cultured on Matrigel-coated dishes (BD Biosciences) in growth medium (GM) consisting of DMEM plus 10% FBS, 1% penicillin-streptomycin and 10% MyoCult (STEMCELL Technologies) for 7 days. Human myogenic cell HSMMs (Lonza) were maintained according to the manufacturer’s instructions with SkGM-2 medium (Lonza).
as §2

[3] = tested on: human skeletal muscle myoblasts (HSMMs); assay: Cell viability assay (cell counting kit-8) of senescent and non-senescent HSMMs treated with inhibitors; format: cell-based; settings: for viability of senescent versus non-senescent HSMMs: Doxo-induced senescence, viability on day 3; for pIC50: Homo sapiens, Myoblast, HSMM
Description: as §3, §1, §6, §2

FAPs [4] = assay: Cell viability assay (cell counting kit-8) of senescent and non-senescent FAPs treated with inhibitors; format: cell-based, mouse; settings: for viability of senescent versus non-senescent FAPs: Doxo-induced senescence, viability on day 5, 25HC at concentrations between 0.1 and 1 μM; for pIC50: FAPs
Description: as §3, §4, §5, §1, §6, §2

[5] = Body weight and gastrocnemius muscle weight in Doxo-treated mice; format: in vivo, mouse; settings: 4 mg/kg Doxo i.p., 5 injections, versus PBS
Description: (§7) Figure 8 25HC induces senolysis in vivo in Doxo-treated mice (A) Timeline of 25HC treatment in Doxo-treated mice. Mice were given 4 mg/kg Doxo or PBS for 5 daily injections[A1], then injected with 25HC or vehicle for 7 consecutive days. (B) Mass of gastrocnemius muscles. Muscle weight was normalized to body weight. (C) Cdkn2a and Cryab mRNA levels in gastrocnemius (Gastroc) and soleus (Sol) muscles. RNA was collected 28–30 d after the first treatment with Doxo. mRNA levels were quantified by qRT-PCR, and normalized to actin mRNA levels. The average value of PBS-vehicle was set at 1. (D) 15-d-PGJ2 analysis in urine. Urine was collected at 24 h after the first treatment with 25HC or HbCD. p values versus PBS-Veh or Doxo-Veh are obtained using Tukey's multiple comparisons test. ∗p < 0.05, ∗∗p < 0.01, p < 0.001, and ∗∗∗∗p < 0.0001.
Male C57BL/6J mice (3–4 months old) were purchased from the Jackson Laboratory. We performed five i.p. injections with 4 mg/kg of Doxo (Tocris Bioscience, Product# 2252) for each injection over 10 days (Figure 6A). Therefore, we injected a total of 20 mg/kg of Doxo/mouse over 10 days. […] Senescence markers p16^INK4a, p21^Cip1 and CRYAB expression was analyzed on gastrocnemius (Gastroc), soleus (So), tibialis anterior (TA), visceral fat (VF), kidney (Ki), liver (Li), lung (Lu), heart (He), and skin (Sk) samples by qRT-PCR.

[6] = tested on: Cdkn1a and Cryab mRNA in gastrocnemius and soleus muscles; assay: qRT-PCR of senescence markers and Cryab in muscles of Doxo-treated mice given 25HC; format: in vivo, mouse; settings: mice, 4 mg/kg Doxo i.p., 5 injections, versus PBS
Description: as §7
Male C57BL/6J mice (3–4 months old) were purchased from the Jackson Laboratory. We performed five i.p. injections with 4 mg/kg of Doxo (Tocris Bioscience, Product# 2252) for each injection over 10 days (Figure 6A). Therefore, we injected a total of 20 mg/kg of Doxo/mouse over 10 days. We used EFT-PBS (EMD Millipore, Product# TMS-012-A) as a control. To test effects of 25HC (Tocris Bioscience, Product# 5741) on Doxo-treated mice, we prepared three experimental groups (n=15 for each group): 1) PBS+HβCD vehicle (22.5%), 2) Doxo (20 mg/kg)+vehicle (22.5%), 3) Doxo (20 mg/kg)+25HC (50 mg/kg) (Figure 6A); 25HC was dissolved in 22.5% 2-hydroxypropyl-beta-cyclodextrin (HβCD) (Tocris Bioscience, Product 0708). On the Day 5 after the last Doxo/PBS injections, the mice were treated with either 25HC (50 mg/kg) or vehicle by i.p. injections for 7 consecutive days (Figure 6A). 12 hr after the first 25HC or vehicle treatments, urine was collected (Figure 6A) from each group to test for the senolysis marker 15-d-PGJ2. […] Senescence markers p16^INK4a, p21^Cip1 and CRYAB expression was analyzed on gastrocnemius (Gastroc), soleus (So), tibialis anterior (TA), visceral fat (VF), kidney (Ki), liver (Li), lung (Lu), heart (He), and skin (Sk) samples by qRT-PCR. […]

SCs [7] = assay: Senescence induction by Doxo in cultured primary SCs (qRT-PCR of marker genes, growth rate); format: cell-based, mouse; settings: 250 or 100 nM Doxo
FAPs [8] = assay: Senescence induction by Doxo in cultured primary FAPs (qRT-PCR of marker genes, growth rate); format: cell-based, mouse; settings: 250 or 100 nM Doxo
SCs [9] = assay: Single-cell RNA sequencing of SCs from skeletal muscle of mice treated with PBS, Doxo or Doxo + ABT (differential gene expression); settings: four-month-old male mice; Doxo 10 mg/kg i.p.; ABT 50 mg/kg/day by gavage, 2 cycles of 5 days
senescent cells = assay: Senescent cell burden in mice treated with Doxo or Doxo + ABT; settings: four-month-old male mice; Doxo 10 mg/kg; ABT 50 mg/kg/day after Doxo
FAPs [10] = assay: Single-cell RNA sequencing of FAPs from skeletal muscle of mice treated with PBS, Doxo or Doxo + ABT (differential gene expression); settings: for senescent FAPs in mouse skeletal muscle (scRNA seq): four-month-old male mice, Doxo 10 mg/kg i.p., ABT 50 mg/kg/day by gavage, 2 cycles of 5 days

SMILES: Brc1ccc(CCC2(Cn3ccnc3)OCCO2)cc1.Cl [OB24]
- senolysis in mDF cells [1]: ineffective
- viability of senescent versus non-senescent SCs (SCs [2]): no difference in killing
- viability of senescent versus non-senescent HSMMs [3]: significantly decreased cell viability
- viability of senescent versus non-senescent FAPs (FAPs [4]): slightly but significantly decreased the viability of FAPs
- pIC50 (FAPs [4]; 7 days in culture): 3.58

SMILES: COc1cccc2c1C(=O)c1c(O)c3c(c(O)c1C2=O)C[C@@](O)(C(=O)CO)C[C@@H]3O[C@H]1C[C@H](N)[C@H](O)[C@H](C)O1 [Doxo, Doxorubicin]
- body weight [5]: significantly decreased
- gastrocnemius muscle weight normalized to body weight [5]: no difference
- Cdkn1A mRNA in gastrocnemius and soleus muscles [6]: significantly increased
- senescence induction in cultured SCs (SCs [7]): induced senescence
- senescence induction in cultured FAPs (FAPs [8]): induced senescence
- senescent SCs in mouse skeletal muscle (scRNA seq) (SCs [9]): induces senescence
- burden of senescent cells in mice (senescent cells): induced senescence
- senescent FAPs in mouse skeletal muscle (scRNA seq) (FAPs [10]): induces senescence

SMILES: CC1(C)CCC(c2ccc(Cl)cc2)=C(CN2CCN(c3ccc(C(=O)NS(=O)(=O)c4ccc(N[C@H](CCN5CCOCC5)CSc5ccccc5)c(S(=O)(=O)C(F)(F)F)c4)cc3)CC2)C1 [ABT263]
- pIC50 (SCs [2]; Mus musculus, 168 h, SCs, 7 days in culture): 4.85
- pIC50 ([3]; 72 h, 3 days in culture): 4.82
- pIC50 ([3]; 168 h, 7 days in culture): 5.05
- pIC50 (FAPs [4]; Mus musculus, 72 h, 3 days in culture): 4.83
- pIC50 (FAPs [4]; Mus musculus, 168 h, 7 days in culture): 5.12
- senescent SCs in mouse skeletal muscle (scRNA seq) (SCs [9]): reduces the fraction
- burden of senescent cells in mice (senescent cells): reduced burden of senescent cells
- senescent FAPs in mouse skeletal muscle (scRNA seq) (FAPs [10]): reduces the fraction
- avg_logFC of gene Capza2 (FAPs [10]; sheet abt_down, gene Capza2, cluster c7, scRNA-seq differential expression): -0.2501
- avg_logFC of gene Coq10b (FAPs [10]; sheet abt_down, gene Coq10b, cluster c7, scRNA-seq differential expression): -0.25
- avg_logFC of gene Hes1 (FAPs [10]; sheet abt_down, gene Hes1, cluster c1, scRNA-seq differential expression): -0.2504
- avg_logFC of gene Pds5b (FAPs [10]; sheet abt_down, gene Pds5b, cluster c9, scRNA-seq differential expression): -0.2501
- avg_logFC of gene Qpct (FAPs [10]; sheet abt_down, gene Qpct, cluster c3, scRNA-seq differential expression): -0.2504
- avg_logFC of gene Creld2 (FAPs [10]; sheet abt_up, gene Creld2, cluster c4, scRNA-seq differential expression): 0.8182
- avg_logFC of gene Cxcl14 (FAPs [10]; sheet abt_up, gene Cxcl14, cluster c5, scRNA-seq differential expression): 0.8906
- avg_logFC of gene Myl9 (FAPs [10]; sheet abt_up, gene Myl9, cluster c9, scRNA-seq differential expression): 0.9071
- avg_logFC of gene Plac8 (FAPs [10]; sheet abt_up, gene Plac8, cluster c3, scRNA-seq differential expression): 0.7972
- avg_logFC of gene Tpm2 (FAPs [10]; sheet abt_up, gene Tpm2, cluster c9, scRNA-seq differential expression): 1.1381

SMILES: O=C(CC(c1ccccc1)c1ccccc1)Cn1ccnc1 [QC-308]
- senolysis in mDF cells [1]: ineffective
- viability of senescent versus non-senescent SCs (SCs [2]): no difference in killing
- viability of senescent versus non-senescent HSMMs [3]: significantly decreased cell viability
- viability of senescent versus non-senescent FAPs (FAPs [4]): slightly but significantly decreased the viability of FAPs
